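A five-concentration, 48-hour dose response in 96-well plates underlies each endpoint, interpolated linearly between surrounding concentrations. TGI: concentration producing complete growth inhibition.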
Experiments:
Assay in all cases: NCI tumour cell line growth inhibition, 48 h
[1] = tested on: 786-0 renal
[2] = tested on: A498 renal
[3] = tested on: A549 NSCLC
[4] = tested on: BT-549 breast
[5] = tested on: CAKI-1 renal
[6] = tested on: CCRF-CEM leukemia
[7] = tested on: COLO 205 colon
[8] = tested on: DU-145 prostate
[9] = tested on: EKVX NSCLC
[10] = tested on: HCC-2998 colon
[11] = tested on: HCT-116 colon
[12] = tested on: HCT-15 colon
[13] = tested on: HL-60(TB) leukemia
[14] = tested on: HS 578T breast
[15] = tested on: HT29 colon
[16] = tested on: K-562 leukemia
[17] = tested on: KM12 colon
[18] = tested on: LOX IMVI melanoma
[19] = tested on: M14 melanoma
[20] = tested on: MALME-3M melanoma
[21] = tested on: MCF7 breast
[22] = tested on: MDA-MB-231 breast
[23] = tested on: MDA-MB-435
[24] = tested on: MDA-N
[25] = tested on: MOLT-4 leukemia
[26] = tested on: NCI-H226 lung
[27] = tested on: NCI-H23 lung
[28] = tested on: NCI-H460 lung
[29] = tested on: NCI/ADR-RES ovarian
[30] = tested on: OVCAR-3 ovarian
[31] = tested on: OVCAR-4 ovarian
[32] = tested on: OVCAR-5 ovarian
[33] = tested on: OVCAR-8 ovarian
[34] = tested on: PC-3 prostate
[35] = tested on: RPMI-8226 leukemia
[36] = tested on: RXF 393 renal
[37] = tested on: SF-268 CNS
[38] = tested on: SF-539 CNS
[39] = tested on: SK-MEL-2 melanoma
[40] = tested on: SK-MEL-28 melanoma
[41] = tested on: SK-OV-3 ovarian
[42] = tested on: SN12C renal
[43] = tested on: SNB-19 CNS
[44] = tested on: SNB-75 CNS
[45] = tested on: SR leukemia
[46] = tested on: SW-620 colon
[47] = tested on: T-47D breast
[48] = tested on: TK-10 renal
[49] = tested on: U251 CNS
[50] = tested on: UACC-257 melanoma
[51] = tested on: UACC-62 melanoma
[52] = tested on: UO-31 renal
[53] = tested on: ACHN renal
[54] = tested on: HOP-62 NSCLC
[55] = tested on: HOP-92 NSCLC
[56] = tested on: IGROV1 ovarian
[57] = tested on: NCI-H522 lung
[58] = tested on: SF-295 CNS
[59] = tested on: SK-MEL-5 melanoma

`CC(C)(C)n1c(=O)[nH]n(C2NN=Cc3cccc4cccc2c34)c1=O` (centres undefined) gave a TGI [1] of over 100 µM, a TGI [2] of 64.9 µM and a TGI [3] of 63.4 µM. It also gave a TGI [4] of over 100 µM, a TGI [5] of over 100 µM and a TGI [6] of 63.6 µM. For the same compound, the TGI [7] was 74.9 µM, the TGI [8] was over 100 µM and the TGI [9] was 68.8 µM. For the same compound, the TGI [10] was over 100 µM, the TGI [11] was over 100 µM and the TGI [12] was over 100 µM. For the same compound, the TGI [13] was 42.1 µM, the TGI [14] was over 100 µM and the TGI [15] was 45.9 µM. For the same compound, the TGI [16] was 40.7 µM, the TGI [17] was over 100 µM and the TGI [18] was over 100 µM. For the same compound, the TGI [19] was over 100 µM, the TGI [20] was over 100 µM and the TGI [21] was over 100 µM. The TGI [22] was over 100 µM, the TGI [23] was over 100 µM and the TGI [24] was 59.4 µM. It also gave a TGI [25] of 81.1 µM, a TGI [26] of over 100 µM and a TGI [27] of over 100 µM. For the same compound, the TGI [28] was over 100 µM, the TGI [29] was over 100 µM and the TGI [30] was over 100 µM. It also gave a TGI [31] of over 100 µM, a TGI [32] of over 100 µM and a TGI [33] of over 100 µM. The TGI [34] was over 100 µM, the TGI [35] was 74.6 µM and the TGI [36] was 72.2 µM. The TGI [37] was over 100 µM, the TGI [38] was 45.1 µM and the TGI [39] was over 100 µM. The TGI [40] was over 100 µM, the TGI [41] was over 100 µM and the TGI [42] was over 100 µM. For the same compound, the TGI [43] was over 100 µM, the TGI [44] was 85.6 µM and the TGI [45] was 37.4 µM. It also gave a TGI [46] of over 100 µM, a TGI [47] of over 100 µM and a TGI [48] of over 100 µM. It also gave a TGI [49] of over 100 µM, a TGI [50] of over 100 µM and a TGI [51] of over 100 µM. The TGI [52] was 70.3 µM.

`O=C1CS(=O)(=O)C(c2cccc(Oc3ccccc3)c2)N1c1cccc(Cl)c1` (centres undefined) was tested, and the TGI [1] was 40.3 µM, the TGI [3] was over 100 µM and the TGI [53] was 59.5 µM. The TGI [4] was 93.2 µM, the TGI [5] was 83.5 µM and the TGI [6] was over 100 µM. It also gave a TGI [7] of 41.1 µM, a TGI [8] of over 100 µM and a TGI [9] of 61.9 µM. For the same compound, the TGI [10] was 15.7 µM, the TGI [11] was 29.6 µM and the TGI [12] was over 100 µM. For the same compound, the TGI [13] was over 100 µM, the TGI [54] was over 100 µM and the TGI [55] was 40.5 µM. For the same compound, the TGI [14] was 97 µM, the TGI [15] was over 100 µM and the TGI [56] was 69.9 µM. The TGI [16] was 52.1 µM, the TGI [17] was over 100 µM and the TGI [18] was 32.1 µM. For the same compound, the TGI [19] was 92.2 µM, the TGI [20] was 52.6 µM and the TGI [21] was 32.4 µM. The TGI [22] was over 100 µM, the TGI [23] was 65.8 µM and the TGI [24] was 49.2 µM. It also gave a TGI [25] of 58.1 µM, a TGI [26] of over 100 µM and a TGI [27] of over 100 µM. It also gave a TGI [28] of 41.3 µM, a TGI [57] of 45.2 µM and a TGI [29] of over 100 µM. The TGI [30] was 95.1 µM, the TGI [31] was over 100 µM and the TGI [32] was over 100 µM. For the same compound, the TGI [33] was 82.8 µM, the TGI [34] was over 100 µM and the TGI [36] was 52.7 µM. It also gave a TGI [37] of 76.7 µM, a TGI [58] of over 100 µM and a TGI [38] of 37.4 µM. It also gave a TGI [39] of 33.2 µM, a TGI [40] of over 100 µM and a TGI [59] of 31.1 µM. For the same compound, the TGI [41] was over 100 µM, the TGI [42] was over 100 µM and the TGI [43] was over 100 µM. It also gave a TGI [44] of over 100 µM, a TGI [45] of 41.2 µM and a TGI [46] of over 100 µM. For the same compound, the TGI [47] was over 100 µM, the TGI [48] was 63.1 µM and the TGI [49] was 47.2 µM. It also gave a TGI [50] of 46.4 µM, a TGI [51] of 29.4 µM and a TGI [52] of over 100 µM.

— PubChem BioAssay (NCI)
